Measured values from PubChem BioAssay (NCI).
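A five-concentration, 48-hour dose response in 96-well plates underlies each endpoint, interpolated linearly between surrounding concentrations. TGI denotes the concentration required for complete inhibition of growth.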

Legend:
Assay in all cases: NCI-60 cell line screen, 48 h
[1] = test system: NCI/ADR-RES ovarian
[2] = test system: M14 melanoma
[3] = test system: SW-620 colon
[4] = test system: A549 NSCLC
[5] = test system: EKVX NSCLC
[6] = test system: U251 CNS
[7] = test system: SF-268 CNS
[8] = test system: OVCAR-4 ovarian
[9] = test system: HOP-62 NSCLC
[10] = test system: RPMI-8226 leukemia
[11] = test system: BT-549 breast
[12] = test system: HL-60(TB) leukemia
[13] = test system: UACC-62 melanoma
[14] = test system: MDA-MB-435
[15] = test system: DU-145 prostate
[16] = test system: HT29 colon
[17] = test system: UACC-257 melanoma
[18] = test system: TK-10 renal
[19] = test system: SR leukemia
[20] = test system: LOX IMVI melanoma
[21] = test system: ACHN renal
[22] = test system: KM12 colon
[23] = test system: HCC-2998 colon
[24] = test system: NCI-H23 lung
[25] = test system: SK-MEL-28 melanoma
[26] = test system: SN12C renal
[27] = test system: OVCAR-5 ovarian
[28] = test system: OVCAR-8 ovarian
[29] = test system: CCRF-CEM leukemia
[30] = test system: HOP-92 NSCLC
[31] = test system: MDA-N
[32] = test system: HS 578T breast
[33] = test system: HCT-15 colon
[34] = test system: MCF7 breast
[35] = test system: COLO 205 colon
[36] = test system: SK-OV-3 ovarian
[37] = test system: NCI-H226 lung
[38] = test system: HCT-116 colon
[39] = test system: PC-3 prostate
[40] = test system: NCI-H460 lung
[41] = test system: SNB-75 CNS
[42] = test system: SK-MEL-2 melanoma
[43] = test system: NCI-H522 lung
[44] = test system: 786-0 renal
[45] = test system: SF-295 CNS
[46] = test system: IGROV1 ovarian
[47] = test system: CAKI-1 renal
[48] = test system: K-562 leukemia
[49] = test system: SF-539 CNS
[50] = test system: MALME-3M melanoma
[51] = test system: UO-31 renal
[52] = test system: MOLT-4 leukemia
[53] = test system: SNB-19 CNS
[54] = test system: MDA-MB-231 breast
[55] = test system: OVCAR-3 ovarian
[56] = test system: T-47D breast
[57] = test system: SK-MEL-5 melanoma
[58] = test system: RXF 393 renal
[59] = test system: A498 renal

CN(C)CCNC1=CC(=O)c2nc3ccccc3c3ccnc1c23
TGI [1]: 28.5 µM
TGI [2]: 21.6 µM
TGI [3]: 18 µM
TGI [4]: 26.3 µM
TGI [5]: 14.3 µM
TGI [6]: 25.5 µM
TGI [7]: 21.5 µM
TGI [8]: 16.6 µM
TGI [9]: 25.6 µM
TGI [10]: 55.5 µM
TGI [11]: 21.4 µM
TGI [12]: 16.8 µM
TGI [13]: 18.2 µM
TGI [14]: 20 µM
TGI [15]: 22.4 µM
TGI [16]: 14.2 µM
TGI [17]: 22.6 µM
TGI [18]: 97.5 µM
TGI [19]: 9.05 µM
TGI [20]: 5.94 µM
TGI [21]: 15 µM
TGI [22]: 17.4 µM
TGI [23]: 16.8 µM
TGI [24]: 18.9 µM
TGI [25]: 23.5 µM
TGI [26]: 20.3 µM
TGI [27]: 34.1 µM
TGI [28]: 37.5 µM
TGI [29]: 21.3 µM
TGI [30]: 60.9 µM
TGI [31]: 20.7 µM
TGI [32]: 24.5 µM
TGI [33]: 20.3 µM
TGI [34]: 16.3 µM
TGI [35]: 9.21 µM
TGI [36]: 29.4 µM
TGI [37]: 18.8 µM
TGI [38]: 14.8 µM
TGI [39]: 17.2 µM
TGI [40]: 9.91 µM
TGI [41]: 27.8 µM
TGI [42]: 20.7 µM
TGI [43]: 16.2 µM
TGI [44]: 15.6 µM
TGI [45]: 19.8 µM
TGI [46]: 14.8 µM
TGI [47]: 18.9 µM
TGI [48]: 17.7 µM
TGI [49]: 15.5 µM
TGI [50]: 16.2 µM
TGI [51]: 23.8 µM
TGI [52]: 13.6 µM
TGI [53]: 29.6 µM
TGI [54]: 16 µM
TGI [55]: 16.4 µM

CC1=CC(=O)C(=CN2C(=O)/C(=C\c3cccnc3)NC2=S)C(=O)O1
TGI [1]: > 100 µM
TGI [2]: > 100 µM
TGI [3]: > 100 µM
TGI [56]: > 100 µM
TGI [4]: > 100 µM
TGI [5]: > 100 µM
TGI [6]: > 100 µM
TGI [8]: > 100 µM
TGI [9]: > 100 µM
TGI [11]: > 100 µM
TGI [12]: > 100 µM
TGI [14]: > 100 µM
TGI [15]: > 100 µM
TGI [16]: > 100 µM
TGI [17]: > 100 µM
TGI [18]: > 100 µM
TGI [20]: > 100 µM
TGI [21]: > 100 µM
TGI [22]: > 100 µM
TGI [23]: > 100 µM
TGI [24]: > 100 µM
TGI [25]: > 100 µM
TGI [26]: > 100 µM
TGI [27]: > 100 µM
TGI [28]: > 100 µM
TGI [30]: > 100 µM
TGI [31]: > 100 µM
TGI [33]: > 100 µM
TGI [34]: > 100 µM
TGI [35]: > 100 µM
TGI [36]: > 100 µM
TGI [37]: > 100 µM
TGI [38]: > 100 µM
TGI [39]: > 100 µM
TGI [40]: > 100 µM
TGI [41]: > 100 µM
TGI [42]: > 100 µM
TGI [44]: > 100 µM
TGI [45]: > 100 µM
TGI [57]: > 100 µM
TGI [46]: > 100 µM
TGI [47]: > 100 µM
TGI [49]: > 100 µM
TGI [51]: > 100 µM
TGI [52]: > 100 µM
TGI [53]: > 100 µM
TGI [54]: > 100 µM
TGI [55]: > 100 µM

CC(C)[Si](OC1=C(C(=O)N(C)c2ccccc2Cl)CCCCC1)(C(C)C)C(C)C
TGI [1]: > 100 µM
TGI [2]: > 100 µM
TGI [58]: > 100 µM
TGI [3]: > 100 µM
TGI [56]: > 100 µM
TGI [4]: > 100 µM
TGI [5]: > 100 µM
TGI [6]: > 100 µM
TGI [7]: > 100 µM
TGI [8]: > 100 µM
TGI [9]: > 100 µM
TGI [10]: > 100 µM
TGI [11]: > 100 µM
TGI [14]: > 100 µM
TGI [15]: > 100 µM
TGI [16]: > 100 µM
TGI [17]: > 100 µM
TGI [18]: > 100 µM
TGI [20]: > 100 µM
TGI [21]: > 100 µM
TGI [22]: > 100 µM
TGI [24]: > 100 µM
TGI [25]: > 100 µM
TGI [26]: > 100 µM
TGI [27]: > 100 µM
TGI [28]: > 100 µM
TGI [30]: > 100 µM
TGI [59]: > 100 µM
TGI [31]: > 100 µM
TGI [33]: > 100 µM
TGI [35]: > 100 µM
TGI [36]: > 100 µM
TGI [37]: > 100 µM
TGI [38]: > 100 µM
TGI [40]: > 100 µM
TGI [41]: > 100 µM
TGI [43]: > 100 µM
TGI [44]: > 100 µM
TGI [45]: > 100 µM
TGI [57]: > 100 µM
TGI [46]: > 100 µM
TGI [47]: > 100 µM
TGI [49]: > 100 µM
TGI [50]: > 100 µM
TGI [51]: > 100 µM
TGI [52]: > 100 µM
TGI [53]: > 100 µM
TGI [54]: > 100 µM
TGI [55]: > 100 µM

CC(CO)(CBr)COC(=O)c1cc(Br)c(N)c(Br)c1 (centres undefined)
TGI [1]: > 100 µM
TGI [2]: > 100 µM
TGI [3]: > 100 µM
TGI [56]: > 100 µM
TGI [4]: > 100 µM
TGI [5]: > 100 µM
TGI [6]: > 100 µM
TGI [7]: > 100 µM
TGI [8]: > 100 µM
TGI [9]: > 100 µM
TGI [10]: > 100 µM
TGI [11]: > 100 µM
TGI [12]: > 100 µM
TGI [13]: > 100 µM
TGI [14]: > 100 µM
TGI [15]: > 100 µM
TGI [16]: > 100 µM
TGI [17]: > 100 µM
TGI [18]: > 100 µM
TGI [19]: > 100 µM
TGI [20]: > 100 µM
TGI [21]: > 100 µM
TGI [22]: > 100 µM
TGI [23]: > 100 µM
TGI [24]: > 100 µM
TGI [25]: > 100 µM
TGI [26]: > 100 µM
TGI [27]: > 100 µM
TGI [28]: > 100 µM
TGI [29]: > 100 µM
TGI [30]: 45.9 µM
TGI [59]: > 100 µM
TGI [31]: > 100 µM
TGI [33]: > 100 µM
TGI [35]: > 100 µM
TGI [36]: > 100 µM
TGI [37]: > 100 µM
TGI [38]: > 100 µM
TGI [39]: > 100 µM
TGI [42]: > 100 µM
TGI [44]: > 100 µM
TGI [45]: > 100 µM
TGI [57]: > 100 µM
TGI [46]: > 100 µM
TGI [47]: > 100 µM
TGI [48]: > 100 µM
TGI [49]: > 100 µM
TGI [51]: 11.3 µM
TGI [52]: > 100 µM
TGI [53]: > 100 µM
TGI [54]: > 100 µM
TGI [55]: > 100 µM
